Test results reported in patent publication US20040171086A1, “Selective modulation of TLR-mediated biological activity” (3M Innovative Properties Company, priority 2003, published 2004).

What was measured:
TLR6 = biological target: T1, TLR6 (Homo sapiens, UniProt Q9Y2C9); assay: IFN-α1-luciferase reporter assay in genetically modified Namalwa cells, TLR6; assay type: cell-based; conditions: 10 μM IRM, 18 hours
T1 construct: expressed in transfected cells; host or cells: Namalwa (ATCC CRL-1432), pCI-TLR6 vector, G418 selected
T1 sequence (Q9Y2C9 32-796): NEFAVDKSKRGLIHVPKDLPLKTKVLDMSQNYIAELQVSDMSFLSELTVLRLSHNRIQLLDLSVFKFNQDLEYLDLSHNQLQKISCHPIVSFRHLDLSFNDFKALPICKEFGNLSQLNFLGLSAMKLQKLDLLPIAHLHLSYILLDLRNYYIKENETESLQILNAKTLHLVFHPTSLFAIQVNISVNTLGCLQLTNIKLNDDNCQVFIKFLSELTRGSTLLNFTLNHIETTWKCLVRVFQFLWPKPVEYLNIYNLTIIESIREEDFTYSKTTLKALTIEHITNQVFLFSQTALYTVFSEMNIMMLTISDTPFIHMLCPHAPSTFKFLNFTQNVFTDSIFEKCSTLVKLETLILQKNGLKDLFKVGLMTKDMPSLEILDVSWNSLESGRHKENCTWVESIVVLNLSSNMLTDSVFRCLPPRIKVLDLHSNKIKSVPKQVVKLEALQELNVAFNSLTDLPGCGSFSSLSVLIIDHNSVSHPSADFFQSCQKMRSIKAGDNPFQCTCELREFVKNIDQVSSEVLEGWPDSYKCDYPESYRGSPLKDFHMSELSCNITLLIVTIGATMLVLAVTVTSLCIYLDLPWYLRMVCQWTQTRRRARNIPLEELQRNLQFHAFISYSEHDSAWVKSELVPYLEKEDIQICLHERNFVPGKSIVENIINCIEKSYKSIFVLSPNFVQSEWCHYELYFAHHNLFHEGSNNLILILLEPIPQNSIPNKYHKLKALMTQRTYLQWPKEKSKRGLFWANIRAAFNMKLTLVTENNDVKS
Description: Results are shown in Table 6 and are expressed as fold induction of IFN-α1 —induced luciferase signal, again with respect to a vehicle control.
The assay identified TLR6-selective compounds (i.e., compounds that modulate TLR6-mediated activity, but not TLR7-mediated activity), TLR7-selective compounds (compounds that modulate TLR7-mediated activity, but not TLR6-mediated activity), and compounds that modulate cellular activity through both TLR6 and TLR7.
Unless otherwise indicated, all incubations were performed at 37° C. with 5% CO2 at 98% humidity.
Culture medium was prepared from complete RPMI 1640 medium (BioSource International, Inc., Camarillo, Calif.). Fetal bovine serum (Atlas Biologicals, Inc., Ft. Collins, Colo.) was added to a final concentration of 7.5% (vol/vol); L-glutamine (BioSource International, Inc.) was added to 5 mM; and sodium pyruvate (BioSource International, Inc.) was added to 1 mM.
Namalwa cells were grown by incubation in culture medium overnight. Cells were harvested by centrifugation in a tabletop centrifuge (1200 RPM for 5 minutes), and then resuspended in phosphate buffered sucrose to a concentration of 1.3×10^7 cells/mL.
For each transfection, a 750 μL aliquot of the cell suspension was placed in an electroporation cuvette with 4 mm gaps. 10 μg of the pIFN-α1-luc vector and 10 μg of the pCI-TLR6 vector were added to the electroporation cuvette. The cell and vector mixtures were incubated at room temperature for 5 minutes. The cells were electroporated using a BioRad Gene Pulser (BioRad Laboratories, Hercules, Calif.) set to at 500 μF capacitance and […], then incubated at room temperature for 5 minutes.
The electroporated cells were suspended in 10 mLs of culture medium and incubated overnight. Dead cells and debris were removed after 24 hours using a MACS Dead Cell Removal kit (Miltenyi Biotec, Auburn, Calif.). Cells were resuspended in 10 mL of culture medium and incubated for an additional 24 hours.
Transfected cells were selected by adding G418 (Promega Corp., Madison, Wis.) to a final concentration of 1 mg/mL and incubating the cells for seven days.
The selected transfected cells were counted and resuspended to a concentration of 1×10^6 cell per mL in culture medium. 100 μl aliquots of cells were placed in the wells of a white-walled, white-bottomed 96-well plate (Corning, Inc., Corning, N.Y.). 1.0 μL of an IRM compound from Table 1 (prepared at 1 mM in 100% DMSO) was added to some cell aliquots so that the final concentration of IRM compound was 10 μM. As a positive control, some cell aliquots were incubated with Sendai virus instead of IRM compound. As a negative control, some cell aliquots were incubated with DMSO without IRM compound. In all cases, the cells were incubated for 18 hours.
The plates were equilibrated to room temperature before one volume of reconstituted LucLight Plus (Packard Instruments, Meriden, Conn.) was added to each aliquot of cells. Each well of the plate was read on an LJL Analyst (LJL Biosystems, Inc., Sunnyvale, Calif.) set with a 5 minute dark adapt. Results are shown in Table 6 and are expressed as fold increase of the IFN-αl—induced luciferase signal compared to a DMSO control.

[1] = test system: myeloid dendritic cells (mDCs); assay: Activation of blood myeloid dendritic cells (CD80/HLA-DR staining, flow cytometry); assay type: cell-based, human; conditions: two donors; 1 μM IRM or 3 μM CpG2216, 16-24 hours; HLA-DR positive with increased CD80; FIG. 1
Description: The blood myeloid dendritic cells (mDC) were isolated from the BDCA-4 negative cell fraction using the Miltenyi Microbead technology system (Miltenyi BioTec, Auburn, Calif.). Cells were resuspended in 4° C. separation buffer (PBS- pH 7.2, 0.5% BSA-2.5 gm, 2 mM 0.5M EDTA) at 20 μl per 10^7 total cells. […] The cells were resuspended in 500 μL of separation buffer per 10^8 total cells. […] BDCA-1^+mDCs were enriched using the Miltenyi Automacs POSSELD software. The cells retained in the column were eluted into a sterile 50 mL polystyrene conical tube.
(§1) Compounds, reconstituted in dimethyl sulfoxide (DMSO, sterile cell culture grade, Sigma Chemical Co., St. Louis, Mo.) were added at 2× their final concentration to a 96-well flat-bottom sterile tissue culture polystyrene plate (Benton Dickinson Labware, Franklin Lakes, N.J.). Cells were then added at 2× the final concentration (final cell concentration is 1×10^6 cells/mL). Plates were incubated for 16-24 hours at 37° C., 5% CO2. After incubation, plates were centrifuged at 1000 RPM for 10 minutes at 25° C. Supernatants were transferred to a 0.75 mL sterile polypropylene Matrix box (Matrix, Hudson, N.Y.) and stored at −20° C. for future cytokine analysis.

[2] = test system: plasmacytoid dendritic cells (pDCs); assay: Activation of plasmacytoid dendritic cells (CD80/HLA-DR staining, flow cytometry); assay type: cell-based, human; conditions: two donors; 1 μM IRM or 3 μM CpG2216, 16-24 hours; HLA-DR positive with increased CD80; FIG. 2
Description: The cells were resuspended in 500 μL of separation buffer per 10^8 total cells. […] The cells retained in the column were eluted into a sterile 50 mL polystyrene conical tube.
as §1

TLR6: fold increase of the IFN-α1-induced luciferase signal compared to a DMSO control (TLR6) [fold increase]	SMILES	activation of myeloid dendritic cells (mDCs) in vitro [1]	activation of plasmacytoid dendritic cells (pDCs) in vitro [2]
10.24	COCCc1nc2c(N)nc3ccccc3c2n1CCOCCN(C)C(=O)C1CCCCC1 [IRM3, N-(2-{2-[4-amino-2-(2-methoxyethyl)-1H-imidazo[4,5-c]quinolin-1-yl]ethoxy}ethyl)-N-methylcyclohexanecarboxamide]	–	–
13.61	CCCCc1nc2c(N)nc3ccccc3c2n1CCCCCS(C)(=O)=O [IRM6, 2-butyl-1-[5-(methylsulfonyl)pentyl]-1H-imidazo[4,5-c]quinolin-4-amine]	–	–
12.49	CCc1nc2c(N)nc3ccccc3c2n1CCCCNC(=O)C1CCCCC1 [IRM8, N-[4-(4-amino-2-ethyl-1H-imidazo[4,5-c]quinolin-1-yl)butyl]cyclohexanecarboxamide]	–	–
2.73	CCc1nc2c(N)nc3ccccc3c2n1CCCCSc1cc(Cl)cc(Cl)c1 [IRM14, 1-{4-[(3,5-dichlorophenyl)thio]butyl}-2-ethyl-1H-imidazo[4,5-c]quinolin-4-amine]	–	–
17.98	CCC(C)NC(=S)NCCn1c(CCOC)nc2c(N)nc3ccccc3c21 (centres unmarked) [IRM21, N-{2-[4-amino-2-(2-methoxyethyl)-1H-imidazo[4,5-c]quinolin-1-yl]ethyl}-N′-sec-butylthiourea]	–	–

Continued, compound first:

SMILES	TLR6: fold increase of the IFN-α1-induced luciferase signal compared to a DMSO control (TLR6) [fold increase]	activation of myeloid dendritic cells (mDCs) in vitro [1]	activation of plasmacytoid dendritic cells (pDCs) in vitro [2]
CCOCc1nc2c(N)nc3ccccc3c2n1CC(C)C [IRM1, 2-(ethoxymethyl)-1-(2-methylpropyl)-1H-imidazo[4,5-c]quinolin-4-amine]	7.93	–	–
CCOCc1nc2c(N)nc3c(c2n1CC(C)(C)O)CCCC3 [IRM16, 4-amino-2-ethoxymethyl-α,α-dimethyl-6,7,8,9-tetrahydro-1H-imidazo[4,5-c]quinoline-1-ethanol]	12.95	activated	activated
COCCc1nc2c(N)nc3ccccc3c2n1CCOCCNC(=O)Nc1ccccc1 [IRM19, N-(2-{2-[4-amino-2-(2-methoxyethyl)-1H-imidazo[4,5-c]quinolin-1-yl)ethoxy}ethyl)-N′-phenylurea]	12.60	–	–
COCCc1nc2c(N)nc3c(c2n1CC(C)(C)NS(C)(=O)=O)CCCC3 [IRM22, N-{2-[4-amino-2-(2-methoxyethyl)-6,7,8,9-tetrahydro-1H-imidazo[4,5-c]quinolin-1-yl]-1,1-dimethylethyl}methanesulfonamide]	16.25	–	–
